{"source": "patent US6316405A", "about": "“Cyclosporin a conjugates and uses therefor” (Wisconsin Alumni Research Foundation, priority 1999, dated 2001)", "key": {"nerve regeneration": {"system": "nerve regeneration", "conditions": "NGF must be present; Lyons et al. 1994, Steine et al. 1997; cited from earlier work"}, "cyclophilin (Cyp)": {"system": "cyclophilin (Cyp)", "conditions": "cited from earlier work"}, "[1]": {"assay": "Solubility of conjugates in organic solvents", "conditions": "running text"}, "Aβ peptide": {"molecular_target": "Aβ peptide (Homo sapiens, UniProt P05067)", "sequence (P05067 672-713 limits assumed)": "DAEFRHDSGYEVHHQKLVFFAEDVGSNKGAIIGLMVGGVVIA", "conditions": "Tjernberg et al. 1996; cited from earlier work"}, "[2]": {"assay": "Solubility of Aβ-binding peptides in organic solvents", "conditions": "for solubility of the peptide (in words): running text, organic solvents", "experimental": "After cleavage from the resin with TFA, the solubles of the crude peptides were determined (ca. 3-5 mg/0.5-1.0 ml) in various solvents (LiCl/DMF, DMF or NMP, and/or mixtures with DCM/MeOH/CH3 CN/dioxane).\n^a conditions: 3-5 mg peptide/0.5-1.0 mL.\n^b conditions tested; NMP, DMF, DMF/LiCl, THF, CH3 CN, DCM, MeOH,"}, "[3]": {"conditions": "Table 11.1, crude peptides for CsA analog coupling, ca. 3-5 mg/0.5-1.0 ml"}, "[4]": {"conditions": "Table 11.1, ca. 3-5 mg/0.5-1.0 ml"}, "[5]": {"conditions": "Table 11.3, 3-5 mg peptide/0.5-1.0 mL, all free lysines are TFA salts"}}, "note": "“Also recorded” adds a separate entry of the source. Peptide text beside a SMILES is read from it. * marks the point of attachment. X1 = CCC(C)(C)C(=O)C(=O)N1CCCC[C@H]1C(=O)O[C@H](CCc1ccccc1)c1cccc(OCC(=O)*)c1; NHTrityl = c1ccc(C(N*)(c2ccccc2)c2ccccc2)cc1; Acetyl(pyridin-2-yl) = O=C(Cc1ccccn1)*; Fmoc = O=C(OCC1c2ccccc2-c2ccccc21)*; ClZ = O=C(OCc1ccccc1Cl)*; Alloc = C=CCOC(=O)*"}
{"compound": "C=CC[C@@H]1/C=C(\\C)C[C@H](C)C[C@H](OC)[C@H]2O[C@@](O)(C(=O)C(=O)N3CCCC[C@H]3C(=O)O[C@H](/C(C)=C/[C@@H]3CC[C@@H](O)[C@H](OC)C3)[C@H](C)[C@@H](O)CC1=O)[C@H](C)C[C@@H]2OC", "note": "[FK506]", "values": [{"measurement": "significant neurotrophic activity at concentrations as low as", "setting": "nerve regeneration", "result": 1, "unit": "pM"}, {"measurement": "binding to cyclophilin (in words)", "setting": "cyclophilin (Cyp)", "result": "does not bind to Cyp"}]}
{"compound": "C=CCOC(=O)NCCCC[C@H](NC(=O)Cc1ccccn1)C(=O)N[C@@H](CC(C)C)C(=O)N[C@H](C(=O)N[C@@H](Cc1ccccc1)C(=O)N[C@@H](Cc1ccccc1)C(=O)N[C@@H](CCCCNC(=O)COc1cccc([C@@H](CCc2ccccc2)OC(=O)[C@@H]2CCCCN2C(=O)C(=O)C(C)(C)CC)c1)C(N)=O)C(C)C", "note": "[10.9, Pyridyl acetyl-K(alloc)LVFFK-NH2 /FKBP inhibitor conjugate] ({Acetyl(pyridin-2-yl)}-K(Alloc)LVFFK(X1)-NH2)", "values": [{"measurement": "solubility of the conjugate (in words)", "setting": "[1]", "result": "methanol soluble salt"}]}
{"compound": "Ac-QKLVFF-NH2", "values": [{"measurement": "fibril formation (in words)", "setting": "Aβ peptide", "result": "binds to and inhibits fibril formation"}]}
{"compound": "C=CCOC(=O)NCCCC[C@H](NC(=O)OCC1c2ccccc2-c2ccccc21)C(=O)N[C@@H](CC(C)C)C(=O)N[C@H](C(=O)N[C@@H](Cc1ccccc1)C(=O)N[C@@H](Cc1ccccc1)C(=O)N[C@@H](CCCCNC(=O)COc1cccc([C@@H](CCc2ccccc2)OC(=O)[C@@H]2CCCCN2C(=O)C(=O)C(C)(C)CC)c1)C(N)=O)C(C)C", "note": "[11.41] (Fmoc-K(Alloc)LVFFK(X1)-NH2)", "values": [{"measurement": "solubility of the conjugate (in words)", "setting": "[1]", "result": "not completely soluble in DCM, DCM/MeOH, or MeOH"}]}
{"compound": "CC(C)C[C@H](NC(=O)[C@H](CCCCNC(=O)OCc1ccccc1Cl)NC(=O)[C@H](CCC(=O)O)NC(=O)OCC1c2ccccc2-c2ccccc21)C(=O)N[C@H](C(=O)N[C@@H](Cc1ccccc1)C(=O)N[C@@H](Cc1ccccc1)C(N)=O)C(C)C", "note": "[11.28, Fmoc-EK(2Cl-Cbz)LVFF-NH2] (Fmoc-EK(ClZ)LVFF-NH2)", "values": [{"measurement": "Solubility (solvent in which the peptide is soluble)", "setting": "[2]; [3]", "result": "DMF"}, {"measurement": "solubility of the peptide (in words)", "setting": "[2]", "result": "soluble in neat DMF without added LiCl"}]}
{"compound": "CC(=O)N[C@@H](CCC(N)=O)C(=O)N[C@@H](CCCCNC(=O)OCc1ccccc1Cl)C(=O)N[C@@H](CC(C)C)C(=O)N[C@H](C(=O)N[C@@H](Cc1ccccc1)C(=O)N[C@@H](Cc1ccccc1)C(=O)O)C(C)C", "note": "[11.23, Ac-QK(2Cl-Cbz)LVFF-OH]", "values": [{"measurement": "Solubility grade in LiCl/DMF or LiCl/NMP", "setting": "[2]; [4]", "result": "medium"}, {"measurement": "solubility of the peptide (in words)", "setting": "[2]", "result": "poorly soluble in all solvents including LiCl/DMF; also recorded: sparingly soluble in LiCl/DMF"}]}
{"compound": "CC(=O)N[C@@H](CCC(=O)O)C(=O)N[C@@H](CCCCNC(=O)OCc1ccccc1Cl)C(=O)N[C@@H](CC(C)C)C(=O)N[C@H](C(=O)N[C@@H](Cc1ccccc1)C(=O)N[C@@H](Cc1ccccc1)C(N)=O)C(C)C", "note": "[11.29, Ac-EK(2Cl-Cbz)LVFF-NH2] (Ac-EK(ClZ)LVFF-NH2)", "values": [{"measurement": "Solubility (solvent in which the peptide is soluble)", "setting": "[2]; [3]", "result": "LiCl/DMF"}, {"measurement": "solubility of the peptide (in words)", "setting": "[2]", "result": "completely soluble only in LiCl/DMF"}, {"measurement": "solubility of the peptide (in words)", "setting": "[2]; listed as Ac-EK(2Cl-Cbz)LVFF-NH2", "result": "increased solubility in DMF"}]}
{"compound": "C=CCOC(=O)NCCCC[C@H](NC(=O)[C@H](CCCCN)NC(=O)OCC1c2ccccc2-c2ccccc21)C(=O)N[C@@H](CC(C)C)C(=O)N[C@H](C(=O)N[C@@H](Cc1ccccc1)C(=O)N[C@@H](Cc1ccccc1)C(N)=O)C(C)C", "note": "[11.35, Fmoc-KK(Alloc)LVFF-NH2] (Fmoc-KK(Alloc)LVFF-NH2)", "values": [{"measurement": "Solubility grade in LiCl/DMF or LiCl/NMP", "setting": "[2]; [5]", "result": "medium"}, {"measurement": "solubility of the peptide (in words)", "setting": "[2]", "result": "insoluble in DMF/LiCl"}]}
{"compound": "CC(C)C[C@H](NC(=O)[C@H](CCCCN)NC(=O)Cc1ccccn1)C(=O)N[C@H](C(=O)N[C@@H](Cc1ccccc1)C(=O)N[C@@H](Cc1ccccc1)C(N)=O)C(C)C", "note": "[11.39, Pyridylacetate-KLVFF-NH2]", "values": [{"measurement": "Solubility (solvent in which the peptide is soluble)", "setting": "[2]; [5]", "result": "DMF"}, {"measurement": "solubility of the peptide (in words)", "setting": "[2]", "result": "completely soluble in DMF as the double TFA salts"}]}
{"compound": "CC(C)C[C@H](NC(=O)[C@H](CCCCNC(=O)OCc1ccccc1Cl)NC(=O)[C@H](CCC(=O)NC(c1ccccc1)(c1ccccc1)c1ccccc1)NC(=O)OCC1c2ccccc2-c2ccccc21)C(=O)N[C@H](C(=O)N[C@@H](Cc1ccccc1)C(=O)N[C@@H](Cc1ccccc1)C(=O)O)C(C)C", "note": "[11.25, Fmoc-Q(Trt)K(2Cl-Cbz)LVFF-OH] (Fmoc-E(NHTrityl)K(ClZ)LVFF-OH)", "values": [{"measurement": "Solubility (solvent in which the peptide is soluble)", "setting": "[2]; [3]", "result": "Hot NMP"}, {"measurement": "solubility of the peptide (in words)", "setting": "[2]", "result": "soluble in only hot NMP and remained cloudy in LiCl/DMF"}]}
{"compound": "CC(C)C[C@H](NC(=O)[C@H](CCCCN)NC(=O)OCC1c2ccccc2-c2ccccc21)C(=O)N[C@H](C(=O)N[C@@H](Cc1ccccc1)C(=O)N[C@@H](Cc1ccccc1)C(N)=O)C(C)C", "note": "[11.37, Fmoc-KLVFF-NH2]", "values": [{"measurement": "Solubility (solvent in which the peptide is soluble)", "setting": "[2]; [5]", "result": "DMF"}, {"measurement": "solubility of the peptide (in words)", "setting": "[2]", "result": "completely soluble in DMF"}]}
{"compound": "CC(C)C[C@H](NC(=O)[C@H](CCCCNC(=O)OCc1ccccc1Cl)NC(=O)OCC1c2ccccc2-c2ccccc21)C(=O)N[C@H](C(=O)N[C@@H](Cc1ccccc1)C(=O)N[C@@H](Cc1ccccc1)C(=O)O)C(C)C", "note": "[11.26, Fmoc-K(2Cl-Cbz)LVFF-OH]", "values": [{"measurement": "Solubility (solvent in which the peptide is soluble)", "setting": "[2]; [3]", "result": "DMF"}, {"measurement": "solubility of the peptide (in words)", "setting": "[2]", "result": "completely soluble in DMF after a short period of vortexing"}]}
{"compound": "CC(=O)N[C@@H](CCCCNC(=O)OCc1ccccc1Cl)C(=O)N[C@@H](CC(C)C)C(=O)N[C@H](C(=O)N[C@@H](Cc1ccccc1)C(=O)N[C@@H](Cc1ccccc1)C(=O)O)C(C)C", "note": "[11.27, Ac-K(2Cl-Cbz)LVFF-OH]", "values": [{"measurement": "Solubility (solvent in which the peptide is soluble)", "setting": "[2]; [3]", "result": "DMF"}, {"measurement": "solubility of the peptide (in words)", "setting": "[2]", "result": "soluble in DMF but requires a longer vortexing period"}, {"measurement": "solubility of the peptide (in words)", "setting": "[2]; listed as Ac-K(2Cl-Cbz)LVFF-OH", "result": "increased solubility in DMF"}]}
{"compound": "[MeLeu(3-OH)^1, MeAla^4,6 ]-CsA", "values": [{"measurement": "binding to cyclophilin (in words)", "setting": "cyclophilin (Cyp)", "result": "retains tight-binding to cyclophilin"}]}
{"compound": "C=CCOC(=O)NCCCC[C@H](NC(=O)Cc1ccccn1)C(=O)N[C@@H](CC(C)C)C(=O)N[C@H](C(=O)N[C@@H](Cc1ccccc1)C(=O)N[C@@H](Cc1ccccc1)C(=O)N[C@@H](CCCCN)C(N)=O)C(C)C", "note": "[11.40, Pyiidylacetate-K(Alloc)LVFFK-NH2] ({Acetyl(pyridin-2-yl)}-K(Alloc)LVFFK-NH2)", "values": [{"measurement": "Solubility (solvent in which the peptide is soluble)", "setting": "[2]; [5]", "result": "DMF"}, {"measurement": "solubility of the peptide (in words)", "setting": "[2]", "result": "completely soluble in DMF as the double TFA salts"}]}
{"compound": "CC(=O)N[C@@H](CCC(=O)NC(c1ccccc1)(c1ccccc1)c1ccccc1)C(=O)N[C@@H](CCCCNC(=O)OCc1ccccc1Cl)C(=O)N[C@@H](CC(C)C)C(=O)N[C@H](C(=O)N[C@@H](Cc1ccccc1)C(=O)N[C@@H](Cc1ccccc1)C(=O)O)C(C)C", "note": "[11.24, Ac-Q(Trt)K(2Cl-Cbz)LVFF-OH] (Ac-E(NHTrityl)K(ClZ)LVFF-OH)", "values": [{"measurement": "Solubility grade in LiCl/DMF or LiCl/NMP", "setting": "[2]; [4]", "result": "medium"}, {"measurement": "solubility of the peptide (in words)", "setting": "[2]", "result": "no improvement in solubility is observed"}]}
{"compound": "C=CCOC(=O)NCCCC[C@H](NC(=O)OCC1c2ccccc2-c2ccccc21)C(=O)N[C@@H](CC(C)C)C(=O)N[C@H](C(=O)N[C@@H](Cc1ccccc1)C(=O)N[C@@H](Cc1ccccc1)C(=O)N[C@@H](CCCCN)C(N)=O)C(C)C", "note": "[11.36, Fmoc-K(Alloc)LVFFK-NH2] (Fmoc-K(Alloc)LVFFK-NH2)", "values": [{"measurement": "Solubility (solvent in which the peptide is soluble)", "setting": "[2]; [5]", "result": "LiCl/DMF"}, {"measurement": "solubility of the peptide (in words)", "setting": "[2]", "result": "completely soluble in LiCl/DMF"}]}
